Test results as given in US5256690A, “Method for treating and controlling the symptoms of neurodegenerative disease and neuropsychopharmacological disorders” (Carter-Wallace, Inc., priority 1992, dated 1993).

Key:
[1] = molecular target: T1, strychnine-insensitive glycine receptors (Rattus norvegicus, UniProt P35439); conditions: value used in the K calculation; read-out: dissociation constant KD of [3H]5,7DCKA; cited from earlier work
T1 construct: Brains are immediately removed and forebrains dissected; from tissue; host or cells: rat forebrain membranes (P2/P3 pellet, washed, frozen), male Sprague-Dawley

[2] = molecular target: T1, strychnine-insensitive glycine receptors; assay: biochemical; format: binding
Description: Male Sprague-Dawley rats weighing 150-200 g are housed under a 12-hour light/dark cycle with access to food and water ad libitum. Animals are anesthetized with CO2 and sacrificed by decapitation. Brains are immediately removed and forebrains dissected, weighed and placed in 10 volumes (original wet weight volume) of 5 mM Hepes/4.5 mM Tris buffer (HTS; pH 7.8) containing 0.32 M sucrose. Tissue preparation is performed at about 4° C unless otherwise stated. Tissues are homogenized using a Brinkmann Polytron (setting 6, 30 seconds), diluted to 50 volumes in HTS-sucrose, and centrifuged at 1,000 xg for 10 minutes. The resultant pellet (P1) is discarded and supernatant centrifuged at 20,000 xg for 20 minutes. The resultant pellet (P2) is resuspended in HTS and centrifuged at 8,000 xg for 20 minutes. The supernatant and outer buffy coat (remaining pellet core discarded) is centrifuged at 20,000 xg for 20 minutes. The resultant pellet (P2/P3) is resuspended in HTS containing 1 mM EDTA and centrifuged at 20,000 xg for 20 minutes. The P2/P3 pellet is resuspended in HTS and the "washing" procedure is repeated two more times. The P2/P3 pellet is then resuspended in 5 volumes of HTS, frozen on dry-ice and stored at -80° C. for at least 72 hours prior to binding assay.
At the time of the assay, the appropriate amount of tissue is thawed and resuspended in 50 mM Hepes-KOH buffer (pH 8.0 at 4° C.) and "washed" twice by resuspension and centrifugation at 20,000 xg for 20 minutes. The binding of [^3 H]5,7DCKA is performed as described by Baron et al. Env. J. Pharmacol 206: 149-154 (1991). Assays are performed at 4° C. using quadruplicate samples in a total volume/tube of 1-ml consisting of: 500 ul membrane suspension (200-300 ug protein/assay tube) in 50 mM Hepes-KOH buffer (pH 8.0 at 4° C.), 100 ul [^3 H]5,7DCKA solution (19-21 nM; specific activity 18.2 Ci/mmol), 100 ul drug or buffer, and 300 ul buffer. […] Felbamate, solutions of 10 mM and 100 mM, are dissolved in 40-50% and 100% DMSO, respectively, and serial dilutions are performed. Binding reactions are initiated by adding the tissue homogenate and terminated after a 15 minute incubation period by rapid filtration through Brandel GF/B filters using a Brandel M-24 cell harvester. This filtration is followed by two 5-ml rinses with ice-cold buffer. Radioactivity is monitored in a Beckman LS 5801 liquid scintillation counter.
Displacement curves and IC50 values were analyzed using Graphpad (ISI Software, Philadelphia, Pa.).

hippocampal slices = assay: Hippocampal slice hypoxia model (evoked potential recovery); format: cell-based, rat; conditions: for evoked potential (population spike) recovery: after one hour recovery
Description: Sprague-Dawley rats are briefly anesthetized with Halothane and then decapitated. The brain is removed and the hippocampus dissected. Transverse hippocampal brain slices of 475 microns are sectioned with a McIlwain tissue chopper. Slices are then incubated in a temperature controlled chamber of 34 degrees centigrade while being perfused with an artificial cerebral spinal fluid (NaCl 126 mM; KCl, 4; KH2 PO4, 1.4; MgSO4, 1.3; CaCl2, 2.4; NaHCO3, 26 and glucose, 4) saturated with 95% O2 and 5% CO2.
After an initial one hour equilibration period, the slices are tested for electrophysiological function. Electrical stimulation is given in the region of the CA3 collaterals with a bipolar twisted wire electrode. Evoked responses are recorded extracellularly in the pyramidal cell layer of the CA1 region. Stimulation is given for a duration of 40 microseconds in square wave pulses. The peak-to-peak amplitude of the resultant evoked potential response is then monitored.
Hippocampal slices from one animal are placed in two chambers. One chamber is used as a control and receives standard artificial cerebral spinal fluid (ACSF) while the second receives felbamate. In each chamber, one slice is stimulated every 30 seconds to monitor evoked potential response. Other slices in the chamber are not continuously stimulated. In these latter slices, designated as non-stimulated, the evoked potential response is assessed only at the beginning and end of the experiment. Only slices with initial evoked potentials of 3 mV or greater amplitude are included for testing.
The experimental chamber is perfused with oxygenated artificial cerebral spinal fluid (ACSF) containing felbamate for 30 minutes before the initiation of hypoxic conditions. The control chamber continues to receive oxygenated ACSF without felbamate during this period. Hypoxic conditions are then initiated simultaneously in both chambers by changing to perfusing media saturated with 95% N2 and 5% CO2. The experimental chamber receives nitrogenated ACSF with felbamate while the control chamber receives nitrogenated ACSF without felbamate.
The duration of hypoxic exposure for both chambers is determined by the disappearance of the hypoxic injury potential (HIP) in the control stimulated slice. This potential appears during hypoxia after the disappearance of the original evoked potential. Although hippocampal slices can vary in their temporal response to hypoxia, the HIP is a reliable marker of permanent hypoxic injury. For this reason, the disappearance of the HIP is chosen to determine length of hypoxic exposure. Hypoxia is continued in both chambers for 5 minutes beyond the disappearance of the HIP in the stimulated control slice.
After hypoxic exposure, slices are monitored through one hour of recovery with oxygenated ACSF. The felbamate chamber receives oxygenated ACSF with felbamate for the first 15 minutes of this recovery and then standard oxygenated ACSF for the remaining 45 minutes of recovery. After a one-hour recovery period, the percentage of evoked potential amplitude recovery is assessed in both stimulated and non-stimulated slices. This percentage is calculated as the evoked potential amplitude after recovery divided by the evoked potential amplitude prior to hypoxic exposure.
This protective action is assessed by several measures. First, evoked potential recovery is assessed in both stimulated and non-stimulated slices. Additionally, hypoxic protection is calculated for both stimulated and non-stimulated slices. This measure is calculated as the damage seen in control slices minus the damage seen in experimental (felbamate) slices divided by the damage seen in control slices. For these purposes damage is defined as 100 percent minus percent recovery. The determination of hypoxic protection helps take into account any survival seen in control slices. Lastly, counts of total surviving slices were made. […]

[3] = Preclinical margin of safety (protective index); format: in vivo; conditions: preclinical profile
MES = conditions: rats; cited from earlier work
metrazol = conditions: rats; cited from earlier work

O=C(O)c1cc(O)c2c(Cl)cc(Cl)cc2n1 [[^3 H]5,7DCKA, [^3 H]5,7-dichlorokynurenic acid]
Kd [1]: 0.069 µM

NC(=O)OCC(COC(N)=O)c1ccccc1 [felbamate, 2-phenyl-1,3-propanediol dicarbamate]
IC50 ([2]; IC50, inhibition of [3H]5,7DCKA, 10 uM-10 mM, combined data of three experiments on a single graph, FIG. 2): 374 µM
IC50 ([2]; IC50 value (mean +/- SEM), mean of the felbamate displacement experiments): 477 ± 49 µM
Ki ([2]; K estimate for inhibition of [3H]5,7DCKA (mean +/- SEM), calculated, mean of experiments, FIG. 2): 368 ± 37 µM
Ki ([2]; K estimate for inhibition of [3H]5,7DCKA, calculated from IC50 of combined data): 289 µM
Hill slope ([2]; combined displacement data, FIG. 2): -0.93
mode of inhibition of [3H]5,7DCKA binding ([2]; rat forebrain membranes, FIG. 2): competitively inhibits
neuroprotection against hypoxia (hippocampal slices; 380 uM, 840 uM, 1,300 uM and 1,700 uM): Significant neuroprotection
counts of surviving stimulated slices (hippocampal slices; 1,300 and 1,700 uM, survival criterion 3 mV): substantial felbamate protection
toxicity for electrophysiological function (hippocampal slices; high concentration of felbamate): no evidence of toxicity
toxicity (permanent evoked potential loss) (hippocampal slices; pre-hypoxic incubation, felbamate perfusion): no evidence of toxicity
evoked potential (population spike) recovery (hippocampal slices; stimulated slices, 4 uM): 2%
evoked potential (population spike) recovery (hippocampal slices; stimulated slices, 190 uM): 6%
evoked potential (population spike) recovery (hippocampal slices; stimulated slices, 380 uM): 13%
evoked potential (population spike) recovery (hippocampal slices; stimulated slices, 840 uM): 46%
evoked potential (population spike) recovery (hippocampal slices; stimulated slices, 1,300 uM): 95%
delay of appearance of the hypoxic injury potential (HIP) (hippocampal slices; stimulated slices, 1,700 uM): 14.5 min
evoked potential (population spike) recovery (hippocampal slices; stimulated slices, 1,700 uM): 96%
effect on disappearance of the evoked potential (hippocampal slices; stimulated slices, 1,700 uM, hypoxia): did not affect
counts of surviving non-stimulated slices (hippocampal slices; survival criterion 3 mV): substantial protection
protective index [3]: 16.9-19.1
anticonvulsant ED50 for MES (MES): 46 mg/kg
anticonvulsant ED50 for metrazol (metrazol): 238 mg/kg
